Drawing on patent publication US12351580B2, “NLRP3 modulators” (Innate Tumor Immunity, Inc., priority 2017, dated 2025), this text covers EC50 for twelve molecules.

Assay [1] deals with T1, TLR8 (Homo sapiens, UniProt Q9NR97).
T1 construct: host or cells: HEK-Blue cells (human HEK) co-expressing TLR8 and an NF-kB/AP1-inducible SEAP reporter
T1 sequence (Q9NR97 27-1041): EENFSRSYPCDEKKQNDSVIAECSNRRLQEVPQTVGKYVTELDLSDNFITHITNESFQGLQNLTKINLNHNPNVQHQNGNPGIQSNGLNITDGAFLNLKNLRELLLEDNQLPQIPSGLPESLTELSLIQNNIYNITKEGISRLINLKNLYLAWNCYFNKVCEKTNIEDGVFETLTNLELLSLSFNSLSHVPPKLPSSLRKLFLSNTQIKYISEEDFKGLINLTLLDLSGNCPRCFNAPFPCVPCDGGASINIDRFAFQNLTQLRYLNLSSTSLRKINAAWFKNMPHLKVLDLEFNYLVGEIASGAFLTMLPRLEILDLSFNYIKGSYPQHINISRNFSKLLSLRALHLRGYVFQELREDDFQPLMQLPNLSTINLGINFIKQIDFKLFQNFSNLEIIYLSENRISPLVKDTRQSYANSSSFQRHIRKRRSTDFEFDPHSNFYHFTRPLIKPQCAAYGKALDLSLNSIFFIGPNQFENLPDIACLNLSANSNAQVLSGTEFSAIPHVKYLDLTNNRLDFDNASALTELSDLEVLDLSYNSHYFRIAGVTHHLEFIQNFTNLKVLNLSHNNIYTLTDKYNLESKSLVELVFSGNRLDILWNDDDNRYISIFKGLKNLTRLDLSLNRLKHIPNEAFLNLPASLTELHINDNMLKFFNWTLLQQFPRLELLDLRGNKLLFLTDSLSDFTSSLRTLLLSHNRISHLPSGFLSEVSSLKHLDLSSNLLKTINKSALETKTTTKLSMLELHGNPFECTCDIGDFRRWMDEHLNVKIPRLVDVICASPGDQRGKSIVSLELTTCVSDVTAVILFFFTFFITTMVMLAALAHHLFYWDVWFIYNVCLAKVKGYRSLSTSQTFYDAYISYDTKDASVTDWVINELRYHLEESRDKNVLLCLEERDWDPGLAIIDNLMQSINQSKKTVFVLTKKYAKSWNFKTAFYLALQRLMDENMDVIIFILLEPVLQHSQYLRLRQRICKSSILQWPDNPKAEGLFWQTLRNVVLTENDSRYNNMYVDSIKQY
The assay can be described thus: In vitro human TLR8 binding reporter assay (HEK-Blue, NF-kB/AP1-inducible SEAP). The class given is cell-based. A digest of the protocol:
(§1)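 Reporter cells are plated at 15,000 per well and rested 24 h. Next day, test compounds or DMSO are dispensed, followed by 18 h incubation at 37 °C, 5% CO2.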
In general terms: In a reporter assay the amount or activity of a reporter protein is the signal.

The target of assay [2] is T2, TLR7 (Homo sapiens, UniProt Q9NYK1).
T2 construct: host or cells: HEK-Blue cells (human HEK) co-expressing TLR7 and an NF-kB/AP1-inducible SEAP reporter
T2 sequence (Q9NYK1 27-1049): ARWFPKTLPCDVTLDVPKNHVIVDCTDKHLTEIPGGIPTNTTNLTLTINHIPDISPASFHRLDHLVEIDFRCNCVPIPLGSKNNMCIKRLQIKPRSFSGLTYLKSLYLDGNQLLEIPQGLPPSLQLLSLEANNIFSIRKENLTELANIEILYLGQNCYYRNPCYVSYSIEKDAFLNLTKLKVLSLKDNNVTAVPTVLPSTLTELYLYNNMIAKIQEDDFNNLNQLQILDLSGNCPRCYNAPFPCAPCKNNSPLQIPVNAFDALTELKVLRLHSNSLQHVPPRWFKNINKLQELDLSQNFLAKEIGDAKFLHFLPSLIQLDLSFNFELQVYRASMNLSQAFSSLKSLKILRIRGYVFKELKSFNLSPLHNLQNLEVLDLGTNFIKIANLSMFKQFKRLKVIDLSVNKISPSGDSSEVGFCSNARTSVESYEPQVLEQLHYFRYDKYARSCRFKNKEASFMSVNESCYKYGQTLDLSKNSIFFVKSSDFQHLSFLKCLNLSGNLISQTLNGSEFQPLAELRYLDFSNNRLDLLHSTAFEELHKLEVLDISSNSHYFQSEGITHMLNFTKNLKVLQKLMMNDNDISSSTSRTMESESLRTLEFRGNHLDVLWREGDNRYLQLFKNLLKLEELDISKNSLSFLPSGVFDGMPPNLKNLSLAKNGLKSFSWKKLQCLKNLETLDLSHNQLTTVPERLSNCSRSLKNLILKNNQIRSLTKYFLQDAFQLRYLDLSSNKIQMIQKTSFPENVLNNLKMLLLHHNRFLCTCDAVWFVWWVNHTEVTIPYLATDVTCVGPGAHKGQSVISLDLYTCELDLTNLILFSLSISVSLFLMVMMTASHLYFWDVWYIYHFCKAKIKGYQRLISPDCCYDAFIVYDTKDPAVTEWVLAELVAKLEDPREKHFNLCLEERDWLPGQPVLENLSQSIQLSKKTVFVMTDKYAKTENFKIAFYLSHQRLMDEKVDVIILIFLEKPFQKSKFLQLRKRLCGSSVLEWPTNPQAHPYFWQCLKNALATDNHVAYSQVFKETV
Description: In vitro human TLR7 binding reporter assay (HEK-Blue, NF-kB/AP1-inducible SEAP). The class given is cell-based. The settings on record: activity range symbols. A digest of the protocol:
as §1

For orientation: EC50 means the midpoint of the concentration-response curve. On to `CCN(Cc1nc2c(N)nc3cc(-c4cc[nH]n4)ccc3c2[nH]1)C(=O)Cc1cccc(C)c1` [Compound 437, N-{[4-amino-7-(1H-pyrazol-3-yl)-1H-imidazo[4,5-c]quinolin-2-yl]methyl}-N-ethyl-2-(3-methylphenyl)acetamide], for which the EC50 in assay [1] (activity range symbols) and in assay [2] was above 100 µM each time.

Take `CCN(Cc1nc2c(N)nc3cc(-c4cc[nH]n4)ccc3c2[nH]1)C(=O)c1cccnc1` [Compound 438, N-{[4-amino-7-(1H-pyrazol-3-yl)-1H-imidazo[4,5-c]quinolin-2-yl]methyl}-N-ethylpyridine-3-carboxamide]: the EC50 in assay [1] (activity range symbols) and in assay [2] was above 100 µM each time.

In the case of `CCN(Cc1nc2c(N)nc3cc(-c4cc[nH]n4)ccc3c2[nH]1)C(=O)c1ccccn1` [Compound 439, N-{[4-amino-7-(1H-pyrazol-3-yl)-1H-imidazo[4,5-c]quinolin-2-yl]methyl}-N-ethylpyridine-2-carboxamide], the EC50 in assay [1] (activity range symbols) and in assay [2] was above 100 µM throughout.

As to `CCN(Cc1nc2c(N)nc3cc(-c4cc[nH]n4)ccc3c2[nH]1)C(=O)CC(C)(C)O` [Compound 440, N-{[4-amino-7-(1H-pyrazol-3-yl)-1H-imidazo[4,5-c]quinolin-2-yl]methyl}-N-ethyl-3-hydroxy-3-methylbutanamide], the EC50 in assay [1] (activity range symbols) and in assay [2] was above 100 µM throughout.

Turning to `CCN(Cc1nc2c(N)nc3cc(-c4cc[nH]n4)ccc3c2[nH]1)C(=O)c1ccc(OC)cc1` [Compound 441, N-{[4-amino-7-(1H-pyrazol-3-yl)-1H-imidazo[4,5-c]quinolin-2-yl]methyl}-N-ethyl-4-methoxybenzamide], the values for the EC50 in assay [1] (numeric bounds) and in assay [2] were above 62 µM and above 100 µM, respectively.

On to `CCN(Cc1nc2c(N)nc3cc(-c4cc[nH]n4)ccc3c2[nH]1)C(=O)c1cnccn1` [Compound 442, N-{[4-amino-7-(1H-pyrazol-3-yl)-1H-imidazo[4,5-c]quinolin-2-yl]methyl}-N-ethylpyrazine-2-carboxamide], for which the EC50 in assay [1] (activity range symbols) and in assay [2] was above 100 µM each time.

As for `CCN(Cc1nc2c(N)nc3cc(-c4cc[nH]n4)ccc3c2[nH]1)C(=O)Cc1ccccc1` [Compound 443, N-{[4-amino-7-(1H-pyrazol-3-yl)-1H-imidazo[4,5-c]quinolin-2-yl]methyl}-N-ethyl-2-phenylacetamide], the EC50 in assay [1] (numeric bounds) was above 62 µM; in assay [2], above 100 µM.

Regarding `CCN(Cc1nc2c(N)nc3cc(-c4cc[nH]n4)ccc3c2[nH]1)C(=O)CCCc1ccccc1` [Compound 444, N-{[4-amino-7-(1H-pyrazol-3-yl)-1H-imidazo[4,5-c]quinolin-2-yl]methyl}-N-ethyl-4-phenylbutanamide], the results for the EC50 in assay [1] (activity range symbols) and in assay [2] were 1 to 20 µM and above 100 µM, respectively.

Turning to `CCN(Cc1nc2c(N)nc3cc(-c4cc[nH]n4)ccc3c2[nH]1)C(=O)CCC(C)C` [Compound 445, N-{[4-amino-7-(1H-pyrazol-3-yl)-1H-imidazo[4,5-c]quinolin-2-yl]methyl}-N-ethyl-4-methylpentanamide], the EC50 is above 62 µM in assay [1] (numeric bounds) and above 100 µM in assay [2].

As for `CCN(Cc1nc2c(N)nc3cc(-c4cc[nH]n4)ccc3c2[nH]1)C(=O)c1cccn1C` [Compound 446, N-{[4-amino-7-(1H-pyrazol-3-yl)-1H-imidazo[4,5-c]quinolin-2-yl]methyl}-N-ethyl-1-methyl-1H-pyrrole-2-carboxamide], the EC50 in assay [1] (activity range symbols) and in assay [2] was above 100 µM in each case.

Regarding `CCN(Cc1nc2c(N)nc3cc(-c4cc[nH]n4)ccc3c2[nH]1)C(=O)CCc1ccccc1` [Compound 447, N-{[4-amino-7-(1H-pyrazol-3-yl)-1H-imidazo[4,5-c]quinolin-2-yl]methyl}-N-ethyl-3-phenylpropanamide], the results for the EC50 in assay [1] (activity range symbols) and in assay [2] were 1 to 20 µM and above 100 µM, respectively.

As to `CCN(Cc1nc2c(N)nc3cc(-c4cc[nH]n4)ccc3c2[nH]1)C(=O)c1ccccc1Cl` [Compound 449, N-{[4-amino-7-(1H-pyrazol-3-yl)-1H-imidazo[4,5-c]quinolin-2-yl]methyl}-2-chloro-N-ethylbenzamide], the EC50 is 20 to 100 µM in assay [1] (activity range symbols) and above 100 µM in assay [2].
